In patent publication US20110251128A1, “THYMOSIN Beta4 PEPTIDES PROMOTE TISSUE REGENERATION” (The Board of Regents of the University of Texas System, priority 2010, published 2011):
“Also recorded” adds a separate entry of the source. Where two headings read alike, the source gives them in different places.

Tests used:
[1] = test system: pS368-Cx43; assay: Western blot of pS368-Connexin43 in infarcted hearts; assay type: in vivo, mouse; details: ischemic border, 21 days, compared to PBS
Description: (§1) Animals and Surgical procedures. Mice: Myocardial infarctions were produced in seventy C57BL/6J male mice at 16 weeks of age (25-30 g) by ligation of the left anterior descending (LAD) coronary artery as described (Garner et al., 2003). All animal protocols were reviewed and approved by the University of Texas Southwestern Medical School Institutional Animal Care Advisory Committee and were in compliance with the rules governing animal use as published by the NIH. Mice were sedated in an isoflurane chamber (5%) for 60 seconds until self-designed coaxial mask could be safely applied. The mask supplied continuous isoflurane (2.0%) and oxygen (98.0%) under positive pressure from a Harvard small animal respirator throughout the procedures. […] Effective doses of the peptides were calculated based on optimal in vitro cell migration effect and on biodistribution calculations of full length TB4 (Mora et al., 1997). […]
(§2) Western blot. […] The protein fraction was isolated from the interphase of the Trizol purification as recommended by the manufacturer; 10 μg of the total protein was loaded and analyzed by Western blot with protein-specific primary antibodies: VEGF, p-Marcks, p-Akt, and GAPDH (1:100) (Santa Cruz), Connexin43 (1:50) (Invitrogen), N-Cadherin (1:5000) (BD Biosciences) and pS368-Connexin43 (1:1000) (Cell Signaling Technology).

[2] = test system: N-Cadherin; assay: Western blot of N-Cadherin in infarcted hearts; assay type: in vivo, mouse; details: infarction core and border zone, 21 days after infarction
Description: as §1, §2

[3] = test system: full thickness wound; details: cited from earlier work; for increase of epithelial layer restoration in the wound: topical or injected, compared to untreated
[4] = test system: C57BL/6J male mice after coronary ligation; assay: Myocardial infarction by LAD coronary ligation in adult mice: echocardiography, scar volume, myocyte size; assay type: in vivo, mouse
Description: Animals and Surgical procedures. Mice: Myocardial infarctions were produced in seventy C57BL/6J male mice at 16 weeks of age (25-30 g) by ligation of the left anterior descending (LAD) coronary artery as described (Garner et al., 2003). All animal protocols were reviewed and approved by the University of Texas Southwestern Medical School Institutional Animal Care Advisory Committee and were in compliance with the rules governing animal use as published by the NIH. Mice were sedated in an isoflurane chamber (5%) for 60 seconds until self-designed coaxial mask could be safely applied. The mask supplied continuous isoflurane (2.0%) and oxygen (98.0%) under positive pressure from a Harvard small animal respirator throughout the procedures. Immediately after ligation mice were injected with 200 ng of peptide in […] or […] PBS in collagen intracardially in the infarction border, and with […] PBS intraperitoneally as described (Bock-Marquette et al., 2004). Intraperitoneal injections were repeated every three days after ligation. Effective doses of the peptides were calculated based on optimal in vitro cell migration effect and on biodistribution calculations of full length TB4 (Mora et al., 1997). The inventors administered buprenorphine (0.05 mg/kg) for post-operative pain control. Hearts were removed 1, 14 and 21 days after ligation and processed for further investigations.
Analysis of cardiac function by echocardiography: Echocardiograms to assess systolic function were performed using M-mode and 2-dimensional measurements as described previously (Garner et al., 2003). The measurements represented the average of six selected cardiac cycles from at least two separate scans performed in random-blind fashion with papillary muscles used as a point of reference for consistency in level of scan. End diastole was defined as the maximal left ventricle (LV) diastolic dimension and end systole was defined as the peak of posterior wall motion. Single outliers in each group were omitted for statistical analysis. Fractional shortening (FS), a surrogate of systolic function, was calculated from LV dimensions as follows: FS=[(EDD−ESD)/EDD]×100%. Ejection fraction (EF) was calculated as follows: EF=[(edd^3−esd^3)/edd^3]×100%. EDD, end diastolic dimension; ESD, end systolic dimension.
Calculation of scar volume and myocyte size: Scar volume was calculated after Masson's trichrome staining in six sections through the heart of each mouse using Openlab 3.03 software (Improvision) similar to previously described (Bock-Marquette et al., 2004). Percent area of collagen deposition was measured on each section in blinded fashion and averaged for each mouse.

[5] = test system: myocardial cells; assay: Beating frequency of myocardial cells in embryonic cardiac explants on collagen gel; assay type: cell-based, mouse; details: 300 ng peptide or 100 ng TB4; normalized to PBS and TB4 controls (TB4 = 100.00)
Procedure: In vitro embryonic cardiac cell migration assay. The outflow tract of the heart was dissected from E11.5 wild-type mouse embryos and placed on rat-tail collagen matrix (Roche) endothelial layer facing down as described (Bock-Marquette et al., 2004; Runyan and Markwald, 1983). After 10 h of attachment, three independent explants were incubated with 300 ng of peptide #1-17, 100 ng of TB4, or 3 μl PBS in […] OPTIMEM medium (Invitrogen/Gibco) respectively. Medium and protein were changed every two days. To monitor migration distance photos were taken daily using Nikon DXM1200F microscope at 4× magnification. Cell migration distance was quantified by ImageJ software (http at rsb.info.nih.gov/ij/) in three separate explants and three measurements for each treatment respectively. Beating frequency of myocardial cells was counted three times at 7-15 days of treatment. Calculations were normalized to PBS and TB4 treated positive and negative controls. After 15 days at 37° C. in 5% CO2, explants were fixed in 4% paraformaldehyde in PBS for 10 min at room temperature. Explants were stored at 4° C. in PBS for further immunocytochemical investigations.

[6] = test system: keratinocytes; details: within four to five hours after treatment, compared to untreated keratinocytes; cited from earlier work
[7] = test system: Connexin43; assay: Connexin43 expression (Western blot) and localization (immunohistology) in infarcted hearts; assay type: in vivo, mouse
Description: as §1, with “applied.” for “applied. The mask supplied continuous isoflurane (2.0%) and oxygen (98.0%) under positive pressure from a Harvard small animal respirator throughout the procedures.”
as §2
Immunohistochemistry. Adult mouse cardiac tissue was fixed in 4% paraformaldehyde and sections were analyzed by immunohistochemistry. […]

[8] = test system: Wt-1 positive cardiac progenitors; assay: Immunohistochemistry, Wt-1 positive progenitor cells at infarction border; assay type: in vivo, mouse; details: border of the infarction, 21 days / three weeks after peptide injections
Description: as §1
(§3) Immunohistochemistry. Adult mouse cardiac tissue was fixed in 4% paraformaldehyde and sections were analyzed by immunohistochemistry. […] Number of sm a-actin positive capillaries and Wt-1 positive cells were counted at the infarction border zone in high power photographs at all levels of the sections in three peptide, TB4 and PBS treated hearts respectively.

[9] = test system: cardiomyocytes; assay: TUNEL assay on hearts after coronary ligation; assay type: in vivo, mouse; details: 24 h after ligation
Description: as §1, §3

[10] = 21 days after ligation, compared to PBS
[11] = three weeks after ligation, intracardiac once plus intraperitoneal every three days

Thymosin β4 [TB4]
pS368-Cx43 (Cx43 phosphorylation) [1]: significantly lower; also recorded: decrease in Cx43 phosphorylation | N-Cadherin expression [2]: slight, but non-significant increase; also recorded: slightly upregulated | increase of epithelial layer restoration in the wound ([3]; by day four): 42% | increase of epithelial layer restoration in the wound ([3]; by day seven): 61% | wound contraction ([3]; compared to untreated wounds): more than 11% | collagen deposition in the wound and angiogenesis ([3]; rat, in vivo): stimulated collagen deposition | myocyte diameter / size in the ischemic area [4, 10]: increased myocyte diameter; also recorded: significantly increase the size of surviving cardiomyocytes | scar (Masson's trichrome staining) [4, 10]: significant reduction of the scar | end systolic diameter (ESD) ([4]; after three weeks): significantly decreased | calculated ejection fraction (EF) [4, 11]: 50.9+/−3.6% | mean fractional shortening (FS) [4, 11]: 87.4+/−2.6% | frequency of myocardial beating [5]: 100.00+/−5.03 beats/75 sec | increase of keratinocyte migration [6]: two to threefold | Cx43 localization ([7]; border zone of cardiac infarction): stayed primarily at the intercalated discs; also recorded: mainly localized to the intercalated discs | Cx43 expression ([7]; infarcted cores, 21 days after infarction): significant increase in Cx43 expression; also recorded: significant increase in Cx43 level | number of Wt-1 positive cells [8]: increased significantly; also recorded: significant increase | TUNEL positive cardiomyocytes (myocardial cell death) [9]: significant decrease of myocardial cell death
